# According to patent US20150366827A1, “COMPOSITIONS AND METHODS FOR MIXING AND APPLYING MIXED OXIDANT COMPOSITIONS FOR DAIRY ANIMAL TREATMENT” (GEA Farm Technologies, Inc., priority 2009, published 2015):
# How the values were obtained:
# [1] = Loss of mixed oxidant activity on exposure to additives (iodometric thiosulfate titration); format: physicochemical; design: % Loss of mixed oxidant activity at (23° C.) / % Loss of Activity at (23° C.): concentration or dose not given beside the values; details: for % Loss of mixed oxidant activity after 24 hours at (23° C.) exposure to mixed oxidant: emollients, beginning mixed oxidant 3800-4100 ppm as available chlorine
# Protocol: The activity of a mixed oxidant system is preferably measured with an iodometric titration by the addition of excess iodide and acid and titration of the resulting iodine (in the form of triiodide) with sodium thiosulfate. This method can measure the various oxidants in the mixture, comprising chlorine.
# (§1) A teat dip composition is defined as stable when the activity of the mixed oxidant decreases by less than about 25% over a 12 hour to 72 hour period. The Tables 1 through 3, and 5 below show the stability of mixed oxidants when exposed to various additives for 12 hours to 96 hours. […] In each Table 1 through 5, the beginning mixed oxidant titrated at between 3800 ppm to 4100 ppm measured as available chlorine.
# [2] = Loss of color of colorants exposed to mixed oxidant, judged on teat; format: physicochemical, dairy animal
# Protocol: as §1
# Colorants are added to teat dips to provide a visual indicator that a teat dip was applied to a diary animal teat.
# Preferably, a stable colorant is added to the teat sanitizer composition, but the colorant must be visible on the teat at the Ready-to-Use concentration. Some colorants are unacceptable because they are stable in their color in solution, but they are not visible on the teat after an exposure to the mixed oxidant for a period of time.
# [3] = chelators, 0.1 days exposure to mixed oxidant, 23° C.
compound,measurement,setting,value
"O=P(O)(O)OP(=O)(O)OP(=O)(O)O [Na, sodium Tripolyphosphate]",Stability of chelator with mixed oxidant (in words),[1]; chelators compatible with mixed oxidant,stable
same,% Loss of mixed oxidant activity at (23° C.),"[1]; chelators, 2 days exposure to mixed oxidant, 23° C.",3.5%
CCCCCCCCCCCCCCCCCC(=O)OCCCCCCCC [Octyl stearate],% Loss of mixed oxidant activity after 24 hours at (23° C.) exposure to mixed oxidant,[1]; 23° C.,11%
EDTA 100,% Loss of mixed oxidant activity at (23° C.),[1]; [3],94%
CC(O)CO (stereo not drawn) [Propylene glycol],% Loss of mixed oxidant activity after 24 hours at (23° C.) exposure to mixed oxidant,[1]; 23° C.,71%
same,% Loss of mixed oxidant activity after 24 hours at (23° C.) exposure to mixed oxidant,"[1]; 23° C., listed as Propylene Glycol",7%
"CCCCCCCCCCCCc1ccc(S(=O)(=O)O)cc1 [DDBSA, dodecylbenzenesulfonic acid]",% Loss of Activity at (23° C.),"[1]; antimicrobials, 2 days exposure to mixed oxidant, 23° C.",6%
COc1cc(S(=O)(=O)[O-])c(C)cc1N=Nc1c(O)ccc2cc(S(=O)(=O)[O-])ccc12.[Na+].[Na+] [FD&C Red #40],Color intensity on teat after 1 day exposure to 4000 ppm mixed oxidant,[2],Clear
CN(C)c1ccc2nc3ccc(=[N+](C)C)cc-3sc2c1 [Methylene Blue],Color intensity on teat after 1 day exposure to 4000 ppm mixed oxidant,[2],Clear
OC[C@@H](O)[C@@H](O)[C@H](O)[C@@H](O)CO [Sorbitol],% Loss of mixed oxidant activity after 24 hours at (23° C.) exposure to mixed oxidant,[1]; 23° C.,78%
CC(C)CCCCCCCCCCCCCCCOC(=O)CCCCC(=O)OCCCCCCCCCCCCCCCC(C)C [Diisostearyl Adipate],% Loss of mixed oxidant activity after 24 hours at (23° C.) exposure to mixed oxidant,[1]; 23° C.,13%
O=S(=O)([O-])c1ccc(N=Nc2c(O)ccc3cc(S(=O)(=O)[O-])ccc23)cc1.[Na+].[Na+] [Yellow #6],Color intensity on teat after 1 day exposure to 4000 ppm mixed oxidant,[2],Clear
OCC(O)CO [Glycerin],% Loss of mixed oxidant activity after 24 hours at (23° C.) exposure to mixed oxidant,[1]; 23° C.,97%
Nonylphenol ethoxylate,% Loss of mixed oxidant activity at (23° C.),"[1]; surfactants, 2 days exposure to mixed oxidant, 23° C.",55%
CCN(Cc1cccc(S(=O)(=O)[O-])c1)c1ccc(C(=C2C=CC(=[N+](CC)Cc3cccc(S(=O)(=O)[O-])c3)C=C2)c2ccccc2S(=O)(=O)[O-])cc1.[Na+].[Na+] [FD&C Blue 1],Color intensity on teat after 1 day exposure to 4000 ppm mixed oxidant,[2],Clear
O=C([O-])[C@H](O)[C@@H](O)[C@H](O)[C@H](O)CO.[Na+] [Sodium Gluconate],% Loss of mixed oxidant activity at (23° C.),[1]; [3],90%
O=C([O-])C1=NN(c2ccc(S(=O)(=O)[O-])cc2)C(=O)C1N=Nc1ccc(S(=O)(=O)[O-])cc1.[Na+].[Na+].[Na+] (stereo not drawn) [Yellow #5],Color intensity on teat after 1 day exposure to 4000 ppm mixed oxidant,[2],Clear
same,Visibility of the dye once applied to a dairy animal teat,[2]; after exposure to mixed oxidant,unacceptable
same,Color in the composition after exposure to the mixed oxidant,"[2]; in solution, after exposure to mixed oxidant",still has some color
Cocamido propyl betaine,% Loss of mixed oxidant activity at (23° C.),"[1]; surfactants, 1 day exposure to mixed oxidant, 23° C.",56%
CC(C)CCCCCCCCCCCCCCC(=O)OC(C)C [Isopropyl Isostearate],% Loss of mixed oxidant activity after 24 hours at (23° C.) exposure to mixed oxidant,[1]; 23° C.,11%
